From ChEMBL document CHEMBL6109087, “Design and synthesis of azole derivatives of echinocystic acid as α-glucosidase inhibitors with hypoglycemic activity” (Eur J Med Chem, 2025)
Calls of active or inactive are those of the source. The calls are words filed in the database; no cut-off is given here.

Assays:
[1] = Acute toxicity in C57BL/6J mouse assessed as change in serum ALB level at 0.5 g/Kg single dose; conditions: in vivo, 500 mg/kg
Mus musculus [2] = test: Reduction in low density lipoproteins (LDL) level in STZ-induced diabetic C57BL/6J mouse model treated via gavage by blood biochemistry index test; type: functional, organism-based
[3] = molecular target: T1, Alpha-glucosidase (Saccharomyces cerevisiae S288c) (UniProt P53341+P38158+P07265); test: Binding affinity to alpha-glucosidase assessed as fluorescent intensity (lambda-ex/lambda-em 285/320 nm) by 3D fluorescence spectra; type: protein assay
[4] = Cytotoxicity against human LO2 cells assessed as cell viability measured after 24 hrs by MTT assay; type: toxicity, cell-based, L02
Mus musculus [5] = test: Anti-oxidant effect in level in STZ-induced diabetic C57BL/6J mouse model assessed as […] in malondialdehyde (MDA) level in serum at 100 mg/kg treated via gavage; type: functional, organism-based
[6] = Acute toxicity in C57BL/6J mouse assessed as change in serum AST level at 0.5 g/Kg single dose; conditions: in vivo, 500 mg/kg
[7] = Acute toxicity in C57BL/6J mouse assessed as pathological damages in spleen at 0.5 g/Kg single dose by HE staining based analysis; type: tissue-based; conditions: in vivo, 500 mg/kg
Alpha-glucosidase [8] = molecular target: T2, Alpha-glucosidase (Saccharomyces cerevisiae S288c, UniProt P53341+P38158+P07265); test: Inhibition of alpha-glucosidase using 4-Nitrophenyl-[…]-D-glucopyranoside (pNPG) as substrate; type: protein assay
Mus musculus [9] = test: Reduction in total cholesterol (CHO) level in STZ-induced diabetic C57BL/6J mouse model treated via gavage by blood biochemistry index test; type: functional, organism-based
[10] = test system: alpha-glucosidase (unknown origin); test: Selectivity index, ratio of CC50 for Cytotoxicity against human LO2 cells to IC50 for alpha-glucosidase (unknown origin); type: toxicity, cell-based, L02; conditions: read-out: Selectivity Index
Mus musculus [11] = test: In vivo hypoglycemic effect in STZ-induced diabetic C57BL/6J mouse model assessed as decrease in fasting blood glucose at 100 mg/kg treated via gavage measured after 7 days by fasting blood glucose test; type: functional, organism-based; conditions: time 7.0 day
[12] = Acute toxicity in C57BL/6J mouse assessed as signs of death or toxicity at 0.5 g/Kg single dose monitored over 14 days; conditions: in vivo, 500 mg/kg, 336 h, time 14 day
[13] = Acute toxicity in C57BL/6J mouse assessed as pathological damages in brain at 0.5 g/Kg single dose by HE staining based analysis; type: tissue-based; conditions: in vivo, 500 mg/kg
Mus musculus [14] = test: Anti-oxidant effect in level in STZ-induced diabetic C57BL/6J mouse model assessed as […] in glutathione (GSH) level in serum at 100 mg/kg treated via gavage; type: functional, organism-based
[15] = Acute toxicity in C57BL/6J mouse assessed as pathological damages in kidney at 0.5 g/Kg single dose by HE staining based analysis; type: tissue-based; conditions: in vivo, 500 mg/kg
[16] = Acute toxicity in C57BL/6J mouse assessed as change in serum BUN level at 0.5 g/Kg single dose; conditions: in vivo, 500 mg/kg
Alpha-glucosidase [17] = molecular target: T2, Alpha-glucosidase; test: Binding affinity to alpha-glucosidase assessed as inhibition constant; type: protein assay
Mus musculus [18] = test: Reduction in triglycerides (TG) level in STZ-induced diabetic C57BL/6J mouse model treated via gavage by blood biochemistry index test; type: functional, organism-based; conditions: dose 25-100 mg/kg
Mus musculus [19] = test: Induction of high density lipoproteins (HDL) level in STZ-induced diabetic C57BL/6J mouse model treated via gavage by blood biochemistry index test; type: functional, organism-based
[20] = molecular target: T1, Alpha-glucosidase (Saccharomyces cerevisiae S288c); test: Binding affinity to alpha-glucosidase assessed as quenching by measuring decrease in fluorescent intensity at 0 to 8 uM; type: protein assay; conditions: dose 0-8 µM
Mus musculus [21] = test: In vivo hypoglycemic effect in STZ-induced diabetic C57BL/6J mouse model assessed as decrease in postprandial blood glucose at 100 mg/kg treated via gavage measured up to 120 mins by Oral glucose tolerance test (OGTT); type: functional, organism-based
[22] = Acute toxicity in C57BL/6J mouse assessed as pathological damages in lung at 0.5 g/Kg single dose by HE staining based analysis; type: tissue-based; conditions: in vivo, 500 mg/kg
[23] = Acute toxicity in C57BL/6J mouse assessed as pathological damages in liver at 0.5 g/Kg single dose by HE staining based analysis; type: tissue-based; conditions: in vivo, 500 mg/kg
Mus musculus [24] = test: Reduction in blood glucose concentration in male C57BL/6J mouse assessed as peak blood glucose and glucose AUC preadministered for 30 mins via gavage followed by treated 2 g/Kg of sucrose and measured up to 120 mins post sucrose challenge by sucrose loading test; type: functional, organism-based; conditions: dose 100.0 mg/kg, time 150.0 min
[25] = Acute toxicity in C57BL/6J mouse assessed as pathological damages in heart at 0.5 g/Kg single dose by HE staining based analysis; type: tissue-based; conditions: in vivo, 500 mg/kg
[26] = molecular target: T1, Alpha-glucosidase (Saccharomyces cerevisiae S288c); test: Binding affinity to alpha-glucosidase assessed as fluorescent intensity (lambda-ex/lambda-em 276/332 nm) by 3D fluorescence spectra; type: protein assay
Mus musculus [27] = test: Anti-oxidant effect in level in STZ-induced diabetic C57BL/6J mouse model assessed as […] in total superoxide dismutase (T-SOD) level in serum at 100 mg/kg treated via gavage; type: functional, organism-based
[28] = Toxicity in STZ-induced diabetic C57BL/6J mouse model assessed as body weight at 100 mg/kg treated via gavage measured after 7 days; type: organism-based; conditions: in vivo, po, 168 h, time 7 day
[29] = molecular target: T1, Alpha-glucosidase (Saccharomyces cerevisiae S288c); test: Mixed-type of inhibition at alpha-glucosidase assessed as decrease in Vmax by Lineweaver-Burk plot analysis; type: protein assay
[30] = molecular target: T1, Alpha-glucosidase (Saccharomyces cerevisiae S288c); test: Binding affinity to alpha-glucosidase assessed as quenching by measuring decrease in fluorescent intensity by […] fluorescence spectroscopy; type: protein assay
Mus musculus [31] = test: Anti-oxidant effect in level in STZ-induced diabetic C57BL/6J mouse model assessed as […] in catalase (CAT) level in serum at 100 mg/kg treated via gavage; type: functional, organism-based
[32] = molecular target: T1, Alpha-glucosidase (Saccharomyces cerevisiae S288c); test: Mixed-type of inhibition at alpha-glucosidase assessed as decrease in Km by Lineweaver-Burk plot analysis; type: protein assay
[33] = Acute toxicity in C57BL/6J mouse assessed as change in serum ALT level at 0.5 g/Kg single dose; conditions: in vivo, 500 mg/kg
[34] = molecular target: T1, Alpha-glucosidase (Saccharomyces cerevisiae S288c); test: Inhibition of alpha-glucosidase using 4-Nitrophenyl-[…]-D-glucopyranoside (pNPG) as substrate assessed as inhibition rate at 30 uM relative control; type: protein assay
Alpha-glucosidase [35] = molecular target: T2, Alpha-glucosidase; test: Binding affinity to alpha-glucosidase assessed as inhibition constant for protein substrate (alpha-Glu-pNPG) complex; type: protein assay

In the case of `CC1(C)CC[C@]2(C(=O)NCc3cn(-c4ccc(Cl)c(Cl)c4)nn3)[C@H](O)C[C@]3(C)C(=CC[C@@H]4[C@@]5(C)CC[C@H](O)C(C)(C)[C@@H]5CC[C@]43C)[C@@H]2C1`, the Activity [1] is reported as “Non-toxic”, the Activity (Mus musculus [2]) is reported as “Dose-dependent-effect” and the Activity [3] is reported as “Active”. For the same compound, the CC50 at 24 h [4] was 287 µM, the Activity (Mus musculus [5]) was “Active” and the Activity [6] was “Non-toxic”. The Activity [7] was “Non-toxic”, the IC50 (Alpha-glucosidase [8]) was 2.72 µM and the Activity (Mus musculus [9]) was “Dose-dependent-effect”. For the same compound, the selectivity ratio [10] was 105, the Activity (Mus musculus [11]) was “Active” and the Activity [12] was “Non-toxic”. For the same compound, the Activity [13] was “Non-toxic”, the Activity (Mus musculus [14]) was “Active” and the Activity [15] was “Non-toxic”. For the same compound, the Activity [16] was “Non-toxic”, the Ki (Alpha-glucosidase [17]) was 15.31 µM and the Activity (Mus musculus [18]) was “Dose-dependent-effect”. For the same compound, the Activity (Mus musculus [19]) was “Dose-dependent-effect”, the Activity [20] was “Active” and the Activity (Mus musculus [21]) was “Active; Evidenced By Compound Showed Lower Auc Compared With Model Group”. The Activity [22] was “Non-toxic”, the Activity [23] was “Non-toxic” and the Activity (Mus musculus [24]) was “Dose-dependent-effect; Compound Showed Comparable Effect To Acarbose”. The Activity [25] was “Non-toxic”, the Activity [26] was “Active” and the Activity (Mus musculus [27]) was “Active”. The Activity [28] was “Non-toxic”, the inhibition [29] was “Active” and the Activity [30] was “Active”. For the same compound, the Activity (Mus musculus [31]) was “Active”, the inhibition [32] was “Active” and the Activity [33] was “Non-toxic”. For the same compound, the inhibition [34] was 88.1% and the Ki (Alpha-glucosidase [35]) was 10.23 µM.
